Data taken from patent US7241803B2, “Compounds for inhibition of HIV infection by blocking HIV entry” (New York Blood Center, priority 2002, dated 2007).

Assays:
[1] = tested on: HIV-1 92US657 (clade B, R5); experiment: infection of PBMCs by primary HIV-1 isolate, p24 production; assay type: cell-based; conditions: Primary 92US657 (clade B, R5)
Description: (§1) Culture media were changed every 3 days.

[2] = tested on: HIV-1 93IN101 (clade C, R5); experiment: as above; assay type: cell-based; conditions: Primary 93IN101 (clade C, R5)
Description: as §1

[3] = tested on: HIV-1 94UG103 (clade A, X4R5); experiment: as above; assay type: cell-based; conditions: Primary 94UG103 (clade A, X4R5)
Description: as §1

[4] = tested on: HIV-1 BCF02 (Group O, R5); experiment: as above; assay type: cell-based
Description: as §1

HIV-1IIIB = experiment: time-of-addition assay; assay type: cell-based; conditions: for time of addition at which HIV replication is inhibited: summary statement
Procedure: Assessment of anti-HIV-1 infectivity. […] Reactions were terminated by addition of 1N H2SO4.
MT-2 cells were incubated with HIV-1IIIB at 37° C. for 0, 1, 2, 3, 4, 6, and 8 hrs, respectively, before addition of the test compounds at 10 μg/ml. AZT (2.5 μM) was used as a control. After culture for another 2 hrs, the cells were washed to remove the free virus and compounds. The supernatants were collected on day 4 post-infection for measurement of p24 production.

[5] = tested on: H9/HIV-1IIIB cells cocultured with MT-2 cells; experiment: syncytium-formation assay for screening HIV-1 fusion inhibitors; assay type: cell-based; conditions: single dose 25 μg/ml
Description: Syncytium-formation assay for screening HIV-1 fusion inhibitors. […] HIV-1 induced syncytium formation was observed under an inverted microscope and scored as “−” (no syncytium was observed), “±” (about 50% syncytia were inhibited), and “+” (no syncytium formation was inhibited). The compounds scored with “−” and “±” were selected for further screening by ELISA for inhibitors against the gp41 six-helix bundle formation.

[6] = molecular target: gp41 six-helix bundle formed by N36 and C34 (Human immunodeficiency virus type 1 group M subtype B, UniProt P04578); conditions: for inhibitory activity on gp41 six-helix bundle formation (sandwich ELISA): graded concentrations, up to 80 μg/ml, compound preincubated with N36; for inhibition of six-helix bundle formation between N36 and C34 (screening ELISA): single dose 25 μg/ml
gp41 six-helix bundle formed by N36 and C34, sequence (P04578 546-581): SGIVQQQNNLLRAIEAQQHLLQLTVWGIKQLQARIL
Procedure: ELISA for screening for compounds that inhibit the gp41 six-helix bundle formation. A sandwich ELISA as previously described (23) was used to screen for compounds that inhibit the gp41 six-helix bundle formation. Briefly, peptide N36 (2 μM) was pre-incubated with a test compound at the indicated concentrations at 37° C. for 30 min, followed by addition of C34 (2 μM). In the control experiments, N36 was pre-incubated with C34 at 37° C. for 30 min, followed by addition of the test compound. After incubation at 37° C. for 30 min, the mixture was added to wells of a 96-well polystyrene plate (Costar, Corning Inc., Corning, N.Y.) which were precoated with IgG (2 μg/ml) purified from rabbit antisera directed against the N36/C34 mixture. […] Absorbance at 450 nm was measured using an ELISA reader (Ultra 384, Tecan, Research Triangle Park, N.C.). The percent inhibition by the compounds was calculated as previously described (18) and the concentration for 50% inhibition (IC50) was calculated using the software designated Calcusyn (7), kindly provided by Dr. T. C. Chou (Sloan-Kettering Cancer Center, New York, N.Y.).

[7] = tested on: gp41 pocket presented on IQN17
Procedure: Inhibition of a biotinylated D-peptide binding to IQN17. For measuring the binding of a D-peptide, D10-p5-2k to IQN17, an ELISA was established. In brief, wells of a 96-well polystyrene plate were coated with IgG (10 μg/ml) purified from rabbit antisera directed against IQN17. The peptide IQN17 (10 μM) was incubated with a compound at graded concentrations at 37° C. for 30 min before addition of the peptide D10-p5-2K-biotin (5 μM). After incubation at 37° C. for 30 min, the mixture was added to the plate, followed by incubation at 37° C. for 30 min. After extensive washes, D10-p5-2K-biotin bound to the IQN17 was quantitated by addition of SA-HRP and TMB sequentially. The absorbance at 450 nm was read using an ELISA reader (Tecan). The percentage of inhibition by the compounds was calculated as described above.

[8] = molecular target: gp41 six-helix bundle formed by N36 and C34-FITC (Human immunodeficiency virus type 1 group M subtype B, UniProt P04578); conditions: 200 μg/ml; for gp41 six-helix bundle formation in FN-PAGE: added after N36 preincubated with C34-FITC; for gp41 six-helix bundle band in FN-PAGE: preincubated with N36 before addition of C34-FITC
gp41 six-helix bundle formed by N36 and C34-FITC, sequence (P04578 546-581): as above
Procedure: Fluorescence native polyacrylamide gel electrophoresis (FN-PAGE). FN-PAGE was performed as previously described (32). Briefly, 18% pre-cast Tris-Glycine gels and Novex X-Cell II Mini cell (Invitrogen, Carlsbad, Calif.) were used for native-PAGE. […] In the control, N36 was incubated with C34-FITC at 37° C. for 30 min before addition of the compounds. After incubation at 37° C. for another 30 min, the mixture was diluted in Tris-Glycine native sample buffer, then loaded to 10×1.0 mm wells. Gel electrophdrosis was carried out with 125 V constant voltage at room temperature for about 90 min in Tris-Glycine native running buffer. Immediately after electrophoresis, image of the fluorescence bands in the gel was taken by the FluorChem 8800 Imaging System (Alpha Innotech corp., San Leandro, Calif.) using a transillumination UV light source with excitation wavelength at 302 nm and a fluorescence filter with emission wavelength at 520 nm.

[9] = 10 μg/ml added one hour or longer after virus
[10] = 10 μg/ml added to the cells with virus together

SMILES | IC50 (μg/ml) for inhibition of p24 production [1] [µg/mL] | IC50 (μg/ml) for inhibition of p24 production [2] [µg/mL] | IC50 (μg/ml) for inhibition of p24 production [3] [µg/mL] | IC50 (μg/ml) for inhibition of p24 production [4] [µg/mL] | inhibition of HIV-1 replication, time of addition (HIV-1IIIB; [9]) | inhibition of HIV-1 replication, time of addition (HIV-1IIIB; [10]) | time of addition at which HIV replication is inhibited (HIV-1IIIB) | inhibition of HIV-1 mediated syncytium formation [5] | inhibitory activity on gp41 six-helix bundle formation (sandwich ELISA) [6] | inhibition of six-helix bundle formation between N36 and C34 (screening ELISA) [6] | inhibition of biotinylated D10-p5-2K binding to IQN17 [7] | gp41 six-helix bundle formation in FN-PAGE [8] | gp41 six-helix bundle band in FN-PAGE [8]
Cc1ccc(C)n1-c1ccc(C(=O)O)c(O)c1 [NB-2] | 10.41 ± 1.88 | 1.05 ± 0.23 | 5.92 ± 0.06 | 0.21 ± 0.12 | no inhibitory activity | inhibited HIV-1 replication | only when they were added to the cells less than two hours after virus addition | significantly inhibited | significantly inhibited | significantly inhibited | significantly inhibited | not inhibited | the intensity of the upper bands were significantly decreased
O=C(O)c1cc(-n2cccc2)ccc1Cl [NB-64] | 6.60 ± 1.80 | 4.38 ± 0.19 | 7.94 ± 0.96 | 1.31 ± 0.90 | no inhibitory activity | inhibited HIV-1 replication | only when they were added to the cells less than two hours after virus addition | significantly inhibited | significantly inhibited | significantly inhibited | significantly inhibited | not inhibited | the intensity of the upper bands were significantly decreased
